From patent US10769242B2, “System and method for data mining very large drugs and clinical effects databases” (Cincinnati Children's Hospital Medical Center, priority 2015, dated 2020)

Test: AERSMine mining of FAERS reports: lithium toxicity and inversely correlated drugs
Design: species or system patients
Conditions: for safety signal IC for lithium-specific neurological adverse events: human
From the text: To establish lithium-adverse event correlation, AERSMine uses multiple quantitative elements such as AE incidence rate, multiple hypothesis testing, relative risk, and safety signals. For this example, the following analytical parameters were used: total reports per adverse event were set to ≥2,000; adverse event and lithium intake co-reported in at least 10 reports; RR set to ≥2; FDR-corrected p-value of <0.001 (Benjamini and Hochberg); and safety signal (i.e., IC) set to >0.
Additionally, by excluding patients with comorbidities (e.g., diabetes) reported to worsen mental health and exacerbate neurological symptoms from the analysis, allows AERSMine to accurately represent potentially lithium-specific adverse events (e.g., aggression, irritability, anger, suicidal tendencies, tremors, and other neurological symptoms, movement disorders, personality changes, etc.). The inventors then sought to determine if AERSMine could identify drugs that are inversely correlated with these adverse events, which may indicate a potential reduction in risk and represent a novel combinatorial strategy to mitigate lithium-related toxicity. […] (no concomitant use with lithium, IC<0, i.e., number of observed events<expected, FDR-corrected p<0.001). To understand how the risks differ across these therapeutic agents, AERSMine additionally allows comparative analyses across multiple drugs or therapeutic classes, which show the differential effects across the inversely correlated drugs.

Compound	number of adverse events significantly correlated with lithium use (of 4,180 adverse events in 22,575 patient reports, RR>=2, FDR p<0.001, IC>0)	safety signal IC for lithium-specific neurological adverse events
[Li] [lithium]	327 adverse events	
CCCCc1nc(Cl)c(CO)n1Cc1ccc(-c2ccccc2-c2nn[nH]n2)cc1 [losartan]		< 0
CCCCC(=O)N(Cc1ccc(-c2ccccc2-c2nnn[nH]2)cc1)[C@H](C(=O)O)C(C)C [valsartan]		< 0
